Measured values reported in PubChem BioAssay AID1013 (Columbia University Molecular Screening Center, 2008).
The source made the active and inactive calls. No rule for the calls is given here.

Key:
[1] = test system: TNFa-stimulated cells, VCAM1 expression imaging; test: inhibitors of TNFa-induced VCAM1 expression, confirmation, imaging, TNFa stimulus, retest and dose response (AID 1013);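 as to cell count: compound on cells 1 h before TNFa then 24 h more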
[2] = as above; details: TNFa-stimulated cells, VCAM1 expression imaging; cell count; at 10 µM; stronger effect = lower value

SMILES	IC50 [1]	cell count [2]
Cc1cc(NC(=O)CSc2nc(-c3ccco3)cc(C(F)(F)F)n2)no1	> 10 µM (inactive)	94.3%
CCN1/C(=C\C=C\C2=[N+](CC)c3ccccc3C2(C)C)C(C)(C)c2ccccc21	0.41 µM	60.4%
CCOC(=O)c1[nH]c(C)c(C(=O)c2cc(F)ccc2F)c1C	0.6 µM	70.7%
C/C(=N\O)c1ccc2c3ccccc3n(C)c2c1	> 10 µM (inactive)	89%
Oc1ccc(Nc2nc(-c3ccc4ccccc4c3)cs2)cc1	> 10 µM (inactive)	92.9%
COc1ccc(S(=O)(=O)Nc2cc3c(C(C)=O)c(C)oc3c3ccccc23)cc1	> 10 µM (inactive)	113%
COc1ccc(-n2nnnc2S(=O)(=O)CC(=O)N2CCCCC2)cc1	3.02 µM	4.64%
COCCOC(=O)c1[nH]c2c(c1C)C(=O)CC(c1ccccc1)C2 (centres undefined)	> 10 µM (inactive)	63%
CCCOc1ccc(C(=O)C(CN2CCOCC2)c2ccccc2)cc1 (centres undefined)	5.2 µM	79.7%
COc1ccc(C2=Nn3c(nnc3-c3ccccc3OC)SC2)cc1OC	0.557 µM	46.9%
COC(=O)C[C@]1(C(=O)OC)CN(C#N)N(c2ccc(Cl)cc2)C12c1ccccc1-c1ccccc12	> 10 µM (inactive)	104%
CCOC(=O)Nc1nc(-c2ccccc2)c(C(=O)c2ccccc2)s1	> 10 µM (inactive)	61.6%
C/C=C/COC(=O)c1[nH]c2c(c1C)C(=O)CC(c1ccco1)C2 (centres undefined)	> 10 µM (inactive)	73.9%
CC(/C=N/NC(=O)c1cc(-c2ccncc2)nc2ccccc12)=C\c1ccco1	3.6 µM	30.4%
COc1ccc(NC(=O)/C(Cl)=C(/Cl)S(=O)(=O)Cc2ccc(C)cc2)cn1	3.25 µM	22.9%
Cc1ccc(CSc2nc3ccccc3cc2C=O)cc1	> 10 µM (inactive)	110%

SMILES	IC50 [1]	cell count [2]
COc1cc(C2C3=C(Nc4ncnn42)c2ccccc2CC3)cc(OC)c1OC (centres undefined)	1.76 µM	27.6%
COc1ccc(C(=O)C(CN2CCOCC2)c2ccccc2)cc1 (centres undefined)	2.68 µM	73.8%
NC(=S)N/N=C/c1ccc(-c2ccc(Cl)c(Cl)c2)o1	> 10 µM (inactive)	93.5%
O=S(=O)(c1ccc(Cl)c(Cl)c1)c1snnc1-c1ccccc1	7.93 µM	99.6%
Cc1cc(NC(=O)CSc2nc(-c3cccs3)cc(C(F)(F)F)n2)no1	> 10 µM (inactive)	111%
COc1cc(C2C(C#N)=C(N)Oc3cc(N(C)C)ccc32)cc2c1OCO2 (centres undefined)	5.11 µM	47.6%
O=C(Nc1nccs1)c1cccc(N2C(=O)c3cccc4c([N+](=O)[O-])ccc(c34)C2=O)c1	> 10 µM (inactive)	102%
Cc1ccc(Cl)cc1NC1=C/C(=N\S(=O)(=O)c2cccs2)c2ccccc2C1=O	> 10 µM (inactive)	123%
Cc1ccc(-n2ncc3c(N4CCN(c5ccccc5)CC4)ncnc32)c(C)c1	> 10 µM (inactive)	111%
O=S(=O)(c1ccc2c(c1)C(=NO)c1cc(S(=O)(=O)N3CCCCC3)ccc1-2)N1CCCCC1	> 10 µM (inactive)	118%
O=C(N/N=C/C=C/c1ccccc1)c1n[nH]c2c1CCC2	> 10 µM (inactive)	103%
Oc1ccc(Nc2nc3ccccc3nc2Nc2ccc(O)cc2)cc1	3.26 µM	1.62%
CC(=O)c1ccc(Oc2cc(C)nc(-n3nc(C)cc3C)n2)cc1	3.83 µM	46.9%
CSc1nc(N(C)NC(=O)c2cccc(C)c2)c2ccccc2n1	0.415 µM	39.5%
CCCOc1ccccc1C1CC(=O)Nc2cc3c(cc21)OCCO3 (centres undefined)	> 10 µM (inactive)	113%
COc1ccc(NS(=O)(=O)c2cc(C)ccc2NC(=O)c2cc(C)oc2C)cc1	3.16 µM	71%
